Reference: ChEMBL document CHEMBL5131509 (Eur J Med Chem, 2022)
Active and inactive are the calls of the source. No cut-off for these calls is given here.

Experiments:
SARS-CoV-2 = assay: Antiviral activity against SARS-CoV-2 infected in African Green monkey Vero cells assessed as inhibition of viral cytopathic effect measured after 72 hrs by inverted microscopic method; assay type: functional, organism-based, Vero E6; conditions: Severe acute respiratory syndrome coronavirus 2, Vero C1008, 72 h
[1] = Oral bioavailability in rat at 5 mg/kg; assay type: ADME, organism-based; conditions: in vivo
Vero E6 = assay type: cell-based; conditions: Chlorocebus aethiops, time 1.0 hrs
Vero C1008 = conditions: chlorocebus sabaeus, vero c1008, 48 h
Description: (§1) Cytotoxicity against African Green monkey Vero E6 cells assessed as reduction in cell viability measured after 48 hrs by MTT assay

in vitro [2] = conditions: PAMPA
Description: (§2) Permeability of compound incubated for 3 hrs by UV plate reader based PAMPA assay

[3] = pampa, 3 h
Description: as §2

[4] = Stability of compound in human plasma at 100 uM by HPLC analysis; assay type: ADME, cell-free; conditions: read-out: Stability
[5] = Metabolic stability of the compound in human liver microsomes S9 fraction preincubated with NADPH for 10 mins followed by compound addition at 50 uM measured upto 360 mins by HPLC analysis; assay type: ADME, subcellular; conditions: read-out: Stability
in vitro [6] = conditions: chlorocebus sabaeus, Vero E6 cells
Description: as §1

in vitro [7] = conditions: chlorocebus sabaeus, Vero E6 cells; remark: listed apart in the source
Description: Cytotoxicity against African green monkey Vero E6 cells assessed as reduction in cell viability preincubated for 2 hrs followed by SARS-CoV-2 addition measured after 24 hrs by CPE assay

[8] = Selectivity ratio of CC50 for African Green monkey Vero E6 cells to IC50 for SARS-CoV-2; assay type: toxicity, Vero C1008

SMILES | IC50 (SARS-CoV-2) [µM] | CC50 (Vero C1008) [µM] | Papp at 3 h (in vitro [2]) [×10⁻⁶ cm/s] | other results
O=C(Nc1ccc([N+](=O)[O-])cc1Cl)c1cc(Cl)ccc1O [NICLOSAMIDE] | 0.4 | 1.03 | 8.5 | bioavailability [1]: 10%; inhibition (Vero E6): Active
O=C(Nc1ccc(F)cc1)c1cc(Cl)ccc1O | – | 6.78 | – | permeability [3]: 18.2 10^-6 cm/s
CNC(=C[N+](=O)[O-])NCCSCc1ccc(CN(C)C)o1 [RANITIDINE] | – | – | 1.6 | –
O=C(Nc1cccc(F)c1)c1cc(Cl)ccc1O | – | 3.63 | 3.7 | –
O=C(Nc1ccc([N+](=O)[O-])c(Cl)c1)c1cc(Cl)ccc1O | 0.057 | – | – | remaining at 100 µM [4]: 78%; remaining at 6 h, 50 µM [5]: 41%; inhibition (Vero E6): Active
O=C(Nc1cccc([N+](=O)[O-])c1)c1cc(Cl)ccc1O | 1.29 | 3.53 | 19.5 | –
Cc1ccc(CNC(=O)c2cc(Cl)ccc2O)cc1 | – | 47.7 | 42.6 | –
O=C(Nc1cccc(Cl)c1)c1cc(Cl)ccc1O | 0.39 | 2.46 | 8.6 | remaining at 6 h, 50 µM [5]: 33%
Cc1ccc(C(=O)Nc2ccc([N+](=O)[O-])cc2Cl)c(O)c1 | – | 21.6 | 6.1 | –
Cc1ccc(O)c(C(=O)Nc2ccc([N+](=O)[O-])cc2Cl)c1 | – | 5.68 | 20.9 | –
O=C(Nc1ccc([N+](=O)[O-])cc1Cl)c1ccccc1 | – | > 100 | 42.2 | –
O=C(Nc1ccc(C(F)(F)F)cc1)c1cc(Cl)ccc1O | 0.38 | – | 6.9 | –
O=C(Nc1ccc(O[C@@H]2O[C@H](CO)[C@@H](O)[C@H](O)[C@H]2O)cc1)c1cc(Cl)ccc1O | – | > 100 | 1.9 | –
Cc1cccc(CNC(=O)c2cc(Cl)ccc2O)c1 | – | 82.4 | 28.4 | –
O=C(Nc1ccc(O)cc1)c1cc(Cl)ccc1O | – | – | 33.1 | CC50 at 48 h (in vitro [6]): > 100 µM
O=C(Nc1ccc(N2CCCCC2)cc1)c1cc(Cl)ccc1O | – | 65.9 | 43.3 | –
O=C(Nc1cccc(C(F)(F)F)c1)c1cc(Cl)ccc1O | 0.49 | 5.95 | 4.2 | remaining at 6 h, 50 µM [5]: 47%; CC50 at 24 h (in vitro [7]): 100 µM
Cc1c(O)cccc1C(=O)N[C@@H](CSc1ccccc1)[C@H](O)CN1C[C@H]2CCCC[C@H]2C[C@H]1C(=O)NC(C)(C)C | 3.3 | – | – | –
CC(C)(C)c1cccc(NC(=O)c2cc(Cl)ccc2O)c1 | 1.51 | 2.36 | 18.7 | selectivity ratio [8]: 1.6
O=C(Nc1ccc([N+](=O)[O-])cc1)c1cc(Cl)ccc1O | 1.11 | – | – | permeability [3]: 12.4 10^-6 cm/s
O=C(Nc1ccc([N+](=O)[O-])cc1Cl)c1ccccc1O | 1.68 | 2.03 | 15.3 | selectivity ratio [8]: 1.2; CC50 at 24 h (in vitro [7]): 100 µM
O=C(Nc1ccc(F)c(Cl)c1)c1cc(Cl)ccc1O | – | 2.44 | 11.5 | –
COc1ccc2cc1Oc1ccc(cc1)C[C@H]1c3c(cc4c(c3Oc3cc5c(cc3OC)CCN(C)[C@@H]5C2)OCO4)CCN1C [CEPHARANTHINE] | 2.8 | – | – | –
O=C(Nc1ccccc1)c1cc(Cl)ccc1O | 8.59 | 19.2 | 16 | –
O=C(Nc1cccc(O)c1)c1cc(Cl)ccc1O | – | – | 15.9 | CC50 at 48 h (in vitro [6]): > 100 µM
O=C(Nc1ccc([N+](=O)[O-])cc1Cl)c1cc(F)ccc1O | – | 8.15 | 30.7 | –
